# Assay results: US10588844B2, “Process for preparing tripeptide containing oleanolic acid and its therapeutic applications thereof” (priority 2017, dated 2020)
# Key:
# [1] = system: keratinocytes; assay: Gene expression analysis in keratinocytes (quantitative RT-PCR); assay type: cell-based, human; conditions: 6.25 μg/ml, 24 hours
# Experimental: (§1) Human dermal fibroblasts and keratinocytes were cultured in 6 well microtiter plates in the presence of 6.25 μg/ml oleanoyl KVK for 24 hours. Untreated cells were used as control. At the end of incubation time, the cells were lysed and RNA was extracted. […] Extracted RNA was treated with DNAse I to remove any contaminating DNA and again extracted using phenol: chloroform: isoamyl alcohol extraction ([…]). Quality of RNA was determined by checking the absorbance at 260/280 nm using a Nanodrop (Thermo). 2 μg of total RNA was taken for cDNA synthesis using Super Script III First-Strand Synthesis System (Life Technologies). Quantitative RT-PCR analysis was performed to determine the expression of brown fat specific genes in Roche Light cycler 96 using SYBR Green master mix (Thermo Scientific). β actin was used as a house keeping gene. The relative RNA abundance of the genes was normalized to the housekeeping β actin gene and expressed as delta delta CT (equivalent to fold change transformed by Log2).
# [2] = biological target: T1, Elastase enzyme from pig pancreas (Sus scrofa, UniProt P00772); assay: Anti elastase activity (EnzChek DQ elastin fluorescence assay); assay type: biochemical
# T1 construct: purchased; host or cells: pig pancreas
# T1 sequence (P00772 27-266): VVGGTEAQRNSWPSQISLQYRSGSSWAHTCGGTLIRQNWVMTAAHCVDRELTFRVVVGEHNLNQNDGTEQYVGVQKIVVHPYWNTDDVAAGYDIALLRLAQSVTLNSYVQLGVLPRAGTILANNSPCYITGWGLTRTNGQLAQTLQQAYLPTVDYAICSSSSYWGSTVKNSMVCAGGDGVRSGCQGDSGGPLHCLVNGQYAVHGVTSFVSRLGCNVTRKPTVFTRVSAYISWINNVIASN
# From the text: Elastase is one of the […], which digest elastin and other components of the extra cellular matrix and is important both for normal skin development. If this enzyme is not regulated by inhibitor proteins results in wrinkling of skin, premature ageing and carcinogenesis. The Anti-Elastase assay by Enz Chek elastase assay kit determines the elastase inhibitory activity of the products. The assays were done using the EnzChek elastase assay kit. The substrate is DQ elastin soluble bovine neck ligament. DQ elastin is labelled with BODIPY FL dye. The non-fluorescent substrate can be digested by elastase to yield highly fluorescent fragments and in the presence of inhibitor, the fluorescence intensity is quenched. The fluorescence intensity was measured in a microplate reader ([…].)
# The assay was performed in a 96 well black microtitre plate. […] 100 μl of the Elastase enzyme solution (final concentration-0.1 U/ml) was added and the fluorescence intensity was measured at Em: 485 nm and Ex: 520 nm after 30 minutes. Enzyme activity of control (buffer) was recorded.
# [formula] • B—Fluorescence in the presence of enzyme • BC—Fluorescence in the absence of enzyme activity • T—Fluorescence of enzyme activity in the presence of inhibitor • C—Fluorescence of the inhibitor alone Result
# [3] = system: TGF-β secretion by fibroblasts; assay: TGF-β concentration in fibroblast culture supernatant; assay type: cell-based, human
# [4] = system: Human keratinocytes (HaCAT); assay: ROS scavenging in keratinocytes, heavy metal induced oxidative stress; assay type: cell-based; conditions: concentration of 12.5% (so in the source)
# Experimental: (§2) Cells: Human keratinocytes (HaCAT)—cells were maintained in fibroblast media (Gibco) at 37° C. in a humidified 5% CO2 incubator.
# (§3) Reactive oxygen species include a number of molecules that damage DNA and RNA and oxidize proteins and lipids (lipid peroxydation). These reactive molecules contain an oxygen atom/molecule and include H2O2 (hydrogen peroxide), NO (nitric oxide), O2^− ([…]), peroxynitrite (ONOO^−), hydrochlorous acid (HOCl), and hydroxyl radical (OH). 5-(and 6)-chloromethyl-20, 70-dichlorohydrofluorescein diacetate (CM-H2DCFDA) freely permeates the plasma membrane and is hydrolyzed in the cytosol to form the DCFH carboxylate anion. Oxidation results in the formation of fluorescent DCF, which is maximally excited at 495 nm and emits at 520 nm.
# Keratinocytes were seeded at 50,000 cells per well in 96 well black plates and allowed to grow as a monolayer for 24 hours. Cells were pre-treated with different concentration of Oleanoyl-KVK for one hour. […] Freshly prepared DCFH-DA reagent was added to all the wells (2 ug/well). The plate was incubated at 37° C. for 30 minutes. Fluorescence was recorded at 485:520, Ex: Em wavelength in FluoStar Optima microplate reader.
# [5] = system: Human keratinocytes (HaCAT); assay: ROS scavenging in keratinocytes, UV induced oxidative stress (DCFH-DA); assay type: cell-based; conditions: 6.25 μg/ml
# Experimental: as §2
# Reagents: Keratinocyte media (Gibco) DCFH-DA Instrument: FluoStar Optima microplate reader.
# as §3
# Keratinocytes were seeded at 50,000 cells per well in 96 well black plates and allowed to grow as a monolayer for 24 hours. Cells were pre-treated with different concentration of Oleanoyl-KVK for one hour. The plate was exposed to UVA radiation for 1 hour. Freshly prepared DCFH-DA reagent was added to all the wells (2 ug/well). The plate was incubated at 37° C. for 30 minutes. Fluorescence was recorded at 485:520, Ex: Em wavelength in FluoStar Optima microplate reader.
# [6] = system: collagen in fibroblasts; assay: Collagen production / collagen staining in fibroblasts; assay type: cell-based, human
# [7] = system: THP-1 cells; assay: Cell viability of THP-1 cells in the anti inflammatory assay; assay type: cell-based, human
# [8] = system: Human dermal fibroblasts; assay: Proliferation of fibroblasts (SRB assay); assay type: cell-based; conditions: concentration of 12.5% (so in the source), 72 hours
# Experimental: Human dermal fribroblasts were seeded at a density of 5×10^3 cells/well in DMEM 10% FBS and antibiotics in 96 well plate and allowed to form a monolayer in a humidified incubator at 37° C. and 5% CO2 atmosphere for 24 hours. Cells were treated with different concentration of the extract for 72 hours to assess the cytotoxicity. The viability of fibroblasts were determined by SRB assay (Nature protocols, 2006, 1, 3, 2112-16). Cells in DMEM with 0.1% DMSO was used as […] while media without cells were used as negative control
# [9] = system: Human dermal fibroblasts; assay: Gene expression analysis in dermal fibroblasts (quantitative RT-PCR); assay type: cell-based; conditions: 6.25 μg/ml, 24 hours
# Experimental: as §1
# [10] = system: Collagenase Type IV from Clostridium histolyticum; assay: Anti collagenase activity (EnzChek DQ gelatin fluorescence assay); assay type: biochemical
# From the text: Collagenase is one of the matrix metalloprotease, which digest collagen and other components of the extra cellular matrix (ECM). The ECM serves as a scaffold to stabilize the skin structure, and also helps in proliferation and metabolic functions of the skin cells. Loss of collagen leads to wrinkles and sagging of skin. The principle of the assay of collagenase inhibition is based on the fact that the substrate DQ™ gelatine is conjugated to fluorecein—a fluorescent compound. In DQ™ gelatine, fluorescence is quenched. DQ™ gelatine is efficiently digested by collagenases to yield a fluorescent compound which can be measured. The increase in fluorescence is proportional to enzyme activity. In the presence of an anti collagenase compound the amount of fluorescence will be decreased for a fixed concentration of enzyme and substrate.
# • Equipment-BMG FLUOstar Optima (fluorescent Microplate reader) • Reagents: Phosphate buffer (pH 7.4) • Collagenase Enzyme assay kit (Enzchek® collagenase, gelatinase assay kit, Invitrogen, USA) • Microtitre plates—96 well microtitre plates (black)—Corning, USA
# The assay was performed in a 96 well black microtitre plate. […] 100 μl of the Collagenase enzyme solution (final concentration-0.4 U/ml) was added and the fluorescence intensity was measured at Em: 485 nm and Ex: 520 nm after 30 minutes. Enzyme activity of control (buffer) was recorded. […]
# [11] = system: keratinocytes exposed to oxidative stress; assay: Gene expression in keratinocytes exposed to oxidative stress (quantitative RT-PCR); assay type: cell-based, human; conditions: cells exposed to oxidative stress
# Experimental: as §1
# [12] = system: TNF-α secretion by THP-1 human monocytes; assay: Anti inflammatory activity: LPS induced TNF-α secretion in THP-1 cells (ELISA); assay type: cell-based; conditions: for % Inhibition (TNF-α): LPS stimulated THP-1, 24 hour
# Experimental: Anti inflammatory activity was examined using human monocyte/macrophage cell line THP-1. Monocytes respond to lipo-polysaccharides (LPS) by secreting pro-inflammatory cytokines. Tumour necrosis factor (TNF-α) is one of the principle cytokine which triggers a cascade of inflammatory reactions. The concentration of TNF-α was measured using an Enzyme linked Immunosorbent assay (ELISA). Reduction in TNF-α concentration indicates an anti inflammatory activity of the compound.
# Cells: THP1-human monocytes purchased from American Type Culture Collection (ATCC, Manassas, Va.) and maintained as a monolayer culture in Rosewell park memorial institute Medium (RPMI Life technologies, CA, USA) supplemented with 10% (v/v) heat-inactivated foetal bovine serum (FBS; GIBCO/Invitrogen, Carlsbad, Calif.), 100 units/mL penicillin and 100 μg/mL streptomycin (Life technologies) at 37° C. in a humidified 5% CO2 incubator.
# ELISA kit: Human TNF ELISA kit, Krishgen Biosciences, USA
# 1×10^5 THP-1 cells were stimulated with 100 ng with lipopolysacharide (LPS, 0.1 μg/mL) to induce TNF-α secretion. Cells were pre treated with different concentrations of oleanoyl KVK before LPS treatment. The cell supernatants were collected 24 hour after treatment and secreted TNF-α as estimated by cytokine ELISA as described by the manufacturer. Un-stimulated cells were used as negative control. The limit of detection was <1 pg/mL.
# [13] = system: Human keratinocytes (HaCAT); assay: Protection against UVB induced apoptosis, DNA damage and death (annexin-FITC/PI flow cytometry); assay type: cell-based; conditions: UVB exposed HaCAT
# Experimental: Cells: Human keratinocytes (HaCAT)—cells were maintained as a monolayer culture in Dulbeccos modified minimal essential medium (DMEM) Life technologies, CA, USA) supplemented with 10% (v/v) heat-inactivated foetal bovine serum (FBS; GIBCO/Invitrogen, Carlsbad, Calif.), 100 units/mL penicillin and 100 μg/mL streptomycin (Life technologies) at 37° C. in a humidified 5% CO2 incubator.
# Reagents: Dulbeccos modified minimal essential medium (DMEM), Fetal bovine serum (FBS), Annexin-FITC, Propidium Iodide-Apoptosis detection kit, Biovision, USA.
# Instrument: Flow Cytometry (BD-FACS-Celesta).
# Cells (3×10^5) were pre-treated with different concentrations of test sample for one hour and exposed to UVB. Cells were exposed to UVB rays for 10 min and incubated for 16 hours in DMEM with 2% serum. Cells were labelled with annexin-FITC and propidium iodide […] for 10 minutes in dark and analyzed using flow cytometer (BD FACS-Celesta).
compound,measurement,setting,value
"CC(C)[C@H](NC(=O)[C@H](CCCCN)NC(=O)[C@]12CCC(C)(C)C[C@H]1C1=CC[C@@H]3[C@@]4(C)CC[C@H](O)C(C)(C)[C@@H]4CC[C@@]3(C)[C@]1(C)CC2)C(=O)N[C@@H](CCCCN)C(=O)O [Oleanoyl-KVK, Lysine-Valine-Lysine (KVK) conjugated to Oleanolic acid]","gene expression in keratinocytes (FIG. 10: collagen, Elastin, TGF-β, hyaluronan synthase, epidermal growth factor)",[1],increased
same,inhibition at 250 µg/mL,[2]; 250 μg/ml,98%
same,IC50,"[2]; DQ elastin substrate, 30 minutes, read-out: IC50 anti elastase activity (printed: anti collagenase activity) (converted)",77 µM
same,TGF-β secretion by fibroblasts,[3],dose dependent increase
same,"ROS scavenging, induced by heavy metals",[4],20.4%
same,"ROS scavenging activity, UV induced stress",[5],17.1%
same,increase in collagen staining in fibroblasts,[6],22.8%
same,Cell viability,[7]; 1.56 μg/ml,100%
same,Cell viability,[7]; 3.12 μg/ml,100%
same,Cell viability,[7]; 6.25 μg/ml,100%
same,Cell viability,[7]; 12.5 μg/ml,100%
same,increase in proliferation of fibroblasts,[8],42.2%
same,expression level of TGF-β,[9],increased
same,expression level of collagen,[9],increased
same,expression level of hyaluronan synthase,[9],increased
same,inhibition of collagenase enzyme activity,[10]; 250 μg/ml,100%
same,IC50 anti collagenase activity,"[10]; DQ gelatin substrate, 30 minutes",48.8 µg/mL
same,expression level of matrix metalloprotease 9,[11],down regulated
same,expression level of tumor necrosis factor α,[11],down regulated
same,% Inhibition (TNF-α),[12]; 1.56 μg/ml,12.14%
same,% Inhibition (TNF-α),[12]; 3.12 μg/ml,12.53%
same,% Inhibition (TNF-α),[12]; 6.25 μg/ml,31.01%
same,% Inhibition (TNF-α),[12]; 12.5 μg/ml,71.03%
same,IC50 anti inflammatory activity,"[12]; LPS stimulated THP-1, TNF-α ELISA",9.09 µg/mL
same,percent protection against UV induced DNA damage and death,[13]; 12.5 μg/ml,47.9%
same,reduction in late apoptosis,[13],concentration dependent reduction in late apoptosis
same,increase in live cells,[13]; 12.5 μg/ml,highest increase in live cells
same,reduction in early apoptosis,[13]; maximum at 12.5 μg/ml,concentration dependent reduction in early apoptosis
